This is an account of results in ChEMBL document CHEMBL5576145, “Domoic Acid as a Lead for the Discovery of the First Selective Ligand for Kainate Receptor Subtype 5 (GluK5)” (J Med Chem, 2024).

The source made the active and inactive calls. The calls are words filed in the database; no cut-off is given here.

As a reminder, the IC50 is the concentration that inhibits the measured activity by half. A high value points to weaker potency. By EC50 is commonly meant the concentration giving half of the maximal effect. For orientation: Ki means a dissociation constant, usually derived from enzyme kinetics or from competition with a known ligand. A low value points to a stronger hold on the target.

The nature of assay [1]: Displacement of [3H]-Kainic acid from KA in rat synaptic membrane. It is filed as subcellular, Synaptosome. On the technique in general: Loss of bound radioactivity is the signal in a displacement assay; it reports binding, not function.
Assay [2] is described as follows: Binding affinity to KA receptor in rat synaptosomes. It is filed as subcellular, Synaptosome.
For assay [3], the target named is T1, Glutamate receptor 4 (Rattus norvegicus, UniProt P19493). The experiment in a line: Binding affinity to AMPA receptor in rat synaptosomes. It is filed as subcellular, Synaptosome.
In a further assay the test system is Hippocampus. The experiment in a line: Reduction in CA1 spike amplitude in Wistar rat hippocampal slices after 20 mins of toxin administration. It is filed as functional, tissue-based.
In assay [4] the target is T1, Glutamate receptor 4. The assay is described as follows: Displacement of [3H]-AMPA from AMPA in rat synaptic membrane. It is filed as subcellular, Synaptosome.
Assay [5] has as its target Glutamate receptor ionotropic, kainate 1 (Homo sapiens, UniProt P39086). The experiment in a line: Displacement of [3H](2S, 4R)-4-MeGlu (SYM-2081) from GluK1 (unknown origin).
Assay [6] has as its target T2, Glutamate receptor ionotropic, kainate 2 (Homo sapiens, UniProt Q13002). The experiment in a line: Displacement of [3H](2S, 4R)-4-MeGlu (SYM-2081) from GluK2 (unknown origin).
A short description of assay [7]: Selectivity ratio of Ki for displacement of [3H]-NF608 from rat GluK1 to Ki for displacement of [3H]-kainate from mouse GluK5.
Assay [8] in a line: Selectivity ratio of Ki for displacement of [3H]-KA from rat GluK3 to Ki for displacement of [3H]-kainate from mouse GluK5.
The target of assay [9] is T3, Glutamate receptor ionotropic, kainate 5 (Mus musculus, UniProt Q61626).
T3 sequence (Q61626 whole entry): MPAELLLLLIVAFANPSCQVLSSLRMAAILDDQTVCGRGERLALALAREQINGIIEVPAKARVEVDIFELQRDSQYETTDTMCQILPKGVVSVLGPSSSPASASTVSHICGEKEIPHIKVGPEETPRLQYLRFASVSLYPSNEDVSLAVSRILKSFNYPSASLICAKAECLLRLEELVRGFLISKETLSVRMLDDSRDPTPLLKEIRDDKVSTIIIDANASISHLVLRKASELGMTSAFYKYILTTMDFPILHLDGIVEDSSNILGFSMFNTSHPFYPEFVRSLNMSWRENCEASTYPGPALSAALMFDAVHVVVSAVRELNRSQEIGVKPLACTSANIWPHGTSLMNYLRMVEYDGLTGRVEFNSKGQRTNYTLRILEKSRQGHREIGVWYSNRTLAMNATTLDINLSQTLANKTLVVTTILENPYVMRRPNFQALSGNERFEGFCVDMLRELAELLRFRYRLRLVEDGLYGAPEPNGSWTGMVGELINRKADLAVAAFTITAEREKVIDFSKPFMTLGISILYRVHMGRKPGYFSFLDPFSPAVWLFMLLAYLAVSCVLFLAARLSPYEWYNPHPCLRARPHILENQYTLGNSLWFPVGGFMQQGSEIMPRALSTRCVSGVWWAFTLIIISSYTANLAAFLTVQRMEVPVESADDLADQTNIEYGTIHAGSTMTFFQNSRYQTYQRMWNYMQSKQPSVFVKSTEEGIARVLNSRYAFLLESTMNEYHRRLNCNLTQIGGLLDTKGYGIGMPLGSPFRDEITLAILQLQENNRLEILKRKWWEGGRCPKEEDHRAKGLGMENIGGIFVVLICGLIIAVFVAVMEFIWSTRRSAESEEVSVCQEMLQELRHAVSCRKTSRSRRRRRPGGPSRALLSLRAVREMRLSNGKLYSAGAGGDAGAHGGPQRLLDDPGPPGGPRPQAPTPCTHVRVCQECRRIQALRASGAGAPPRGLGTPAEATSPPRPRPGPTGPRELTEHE
The assay is described as follows: Displacement of [3H]-kainate from mouse GluK5 expressed in Sf9 cell membrane incubated for 2 hrs by scintillation counting method. It is filed as cell membranes.

Assay [10] concerns the target Glutamate receptor ionotropic, kainate 3 (Rattus norvegicus, UniProt P42264). The assay is described as follows: Displacement of [3H]-KA from rat GluK3.
Assay [11] addresses Glutamate receptor ionotropic, kainate 2 (Rattus norvegicus, UniProt P42260). The experiment in a line: Displacement of [3H]-KA from rat GluK2.
In assay [12] the target is Glutamate receptor ionotropic, kainate 1 (Rattus norvegicus, UniProt P22756). The assay is described as follows: Displacement of [3H]-NF608 from rat GluK1.
A short description of assay [13]: Displacement of [3H]-KA from KA in rat cortical synaptosomes incubated for 60 mins by TopCount microplate scintillation counting method. In kind it is subcellular, Cortex, Synaptosome.
Assay [14] addresses Glutamate NMDA receptor (Rattus norvegicus) (UniProt P35439+Q00959+Q00960+Q00961+Q62645+Q8VHN2+Q9R1M7). The experiment in a line: Displacement of [3H]CGP39653 from NMDA receptor in rat cortical synaptosomes assessed as remaining activity at 10 uM incubated for 60 mins by Topcount microplate scintillation counting method relative to control. The settings on record: Cortex, Synaptosome. It is filed as subcellular.

For assay [15], the target named is Glutamate receptor 4 (Rattus norvegicus) (UniProt P19493). The experiment in a line: Displacement of [3H]-AMPA from AMPA in rat cortical synaptosomes assessed as remaining activity at 10 uM incubated for 30 mins by TopCount microplate scintillation counting method relative to control. In kind it is subcellular. The following applies: Cortex, Synaptosome.
A short description of assay [16]: Selectivity ratio of Ki for displacement of [3H]-KA from rat GluK2 to Ki for displacement of [3H]-kainate from mouse GluK5.
The target in assay [17] is T2, Glutamate receptor ionotropic, kainate 2. The assay is described as follows: Displacement of [3H]-kainic acid from GluR6 (unknown origin) expressed in Sf9 cells membrane. It is filed as cell membranes, Cell membrane.
Assay [18] concerns the target T1, Glutamate receptor 4. The assay is described as follows: Displacement of [3H]-AMPA from AMPA in rat cortical synaptosomes incubated for 30 mins by TopCount microplate scintillation counting method. In kind it is subcellular, Cortex, Synaptosome.
A further assay deals with Glutamate NMDA receptor. The experiment in a line: Displacement of [3H]CGP39653 from NMDA receptor in rat cortical synaptosomes incubated for 60 mins by Topcount microplate scintillation counting method. In kind it is subcellular, Cortex, Synaptosome.
For assay [19], the system named is Neuron. The experiment in a line: Agonist activity at GluK2/K5 in mouse hippocampal neurons assessed as change in holding current at 100 uM by electrophysiology. It is filed as cell-based. The following applies: filed as agonist.
Assay [20] addresses T4, Ionotropic glutamate receptor kainate 2/5 (Homo sapiens) (UniProt Q16478+Q13002). The assay is described as follows: Antagonist activity at GluK2/K5 (unknown origin) expressed in HEK293T cells preincubated with compound followed by L-Glu stimulation by electrophysiology. In kind it is cell-based.
For assay [21], the system named is Neuron. The experiment in a line: Agonist activity at GluK2/K5 in mouse hippocampal neurons assessed as change in holding current at 10 uM by electrophysiology. It is filed as cell-based. The settings on record: filed as agonist.
For assay [22], the target named is T4, Ionotropic glutamate receptor kainate 2/5 (Homo sapiens). The assay is described as follows: Agonist activity at GluK2/K5 (unknown origin) expressed in HEK293T cells at 10 uM by electrophysiology. It is filed as cell-based.
The target in assay [23] is Glutamate receptor ionotropic, kainate 1 (Rattus norvegicus) (UniProt P22756). The assay is described as follows: Displacement of [3H]-NF608 from rat GluK1 assessed as percent of radioligand binding at 10 uM relative to control.
For assay [24], the target named is T1, Glutamate receptor 4. The assay is described as follows: Displacement of [3H]-AMPA from AMPA in rat brain membrane preincubated for 15 mins followed by [3H]-AMPA addition and measured after 40 mins by scintillation counting method. In kind it is cell membranes.
Assay [25] is described as follows: Displacement of [3H]-Kainic acid from KA in rat brain membrane preincubated for 15 mins followed by [3H]-Kainic acid addition and measured after 1 hr by scintillation counting method. In kind it is cell membranes.

Sequence of Glutamate receptor ionotropic, kainate 1 (Rattus norvegicus, UniProt P22756) (P22756 whole entry): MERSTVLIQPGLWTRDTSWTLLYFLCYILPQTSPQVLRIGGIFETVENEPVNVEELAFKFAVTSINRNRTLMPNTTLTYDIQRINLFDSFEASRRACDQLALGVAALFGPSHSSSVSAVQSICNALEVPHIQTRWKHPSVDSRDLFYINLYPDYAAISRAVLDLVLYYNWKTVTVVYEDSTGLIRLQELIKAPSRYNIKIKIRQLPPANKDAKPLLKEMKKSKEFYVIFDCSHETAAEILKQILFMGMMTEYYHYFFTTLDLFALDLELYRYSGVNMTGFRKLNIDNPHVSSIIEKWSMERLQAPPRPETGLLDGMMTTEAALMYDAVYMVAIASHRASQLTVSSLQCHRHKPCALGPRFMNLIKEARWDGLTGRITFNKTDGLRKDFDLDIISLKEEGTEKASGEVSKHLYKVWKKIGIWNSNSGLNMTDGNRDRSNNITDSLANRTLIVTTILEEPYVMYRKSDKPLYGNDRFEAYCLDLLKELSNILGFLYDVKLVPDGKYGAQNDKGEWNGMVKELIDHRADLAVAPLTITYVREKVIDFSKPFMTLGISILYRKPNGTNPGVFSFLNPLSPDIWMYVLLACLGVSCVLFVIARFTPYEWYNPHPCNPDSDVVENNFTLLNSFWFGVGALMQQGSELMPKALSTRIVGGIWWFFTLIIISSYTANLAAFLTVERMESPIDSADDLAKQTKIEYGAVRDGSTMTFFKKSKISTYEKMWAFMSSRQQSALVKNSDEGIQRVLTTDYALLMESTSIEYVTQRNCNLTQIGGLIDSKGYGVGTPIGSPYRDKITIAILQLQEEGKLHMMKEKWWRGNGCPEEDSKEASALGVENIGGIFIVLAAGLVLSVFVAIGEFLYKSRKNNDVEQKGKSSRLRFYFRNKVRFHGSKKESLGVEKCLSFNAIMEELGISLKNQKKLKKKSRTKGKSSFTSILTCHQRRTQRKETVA
Sequence of Glutamate receptor ionotropic, kainate 3 (P42264 whole entry): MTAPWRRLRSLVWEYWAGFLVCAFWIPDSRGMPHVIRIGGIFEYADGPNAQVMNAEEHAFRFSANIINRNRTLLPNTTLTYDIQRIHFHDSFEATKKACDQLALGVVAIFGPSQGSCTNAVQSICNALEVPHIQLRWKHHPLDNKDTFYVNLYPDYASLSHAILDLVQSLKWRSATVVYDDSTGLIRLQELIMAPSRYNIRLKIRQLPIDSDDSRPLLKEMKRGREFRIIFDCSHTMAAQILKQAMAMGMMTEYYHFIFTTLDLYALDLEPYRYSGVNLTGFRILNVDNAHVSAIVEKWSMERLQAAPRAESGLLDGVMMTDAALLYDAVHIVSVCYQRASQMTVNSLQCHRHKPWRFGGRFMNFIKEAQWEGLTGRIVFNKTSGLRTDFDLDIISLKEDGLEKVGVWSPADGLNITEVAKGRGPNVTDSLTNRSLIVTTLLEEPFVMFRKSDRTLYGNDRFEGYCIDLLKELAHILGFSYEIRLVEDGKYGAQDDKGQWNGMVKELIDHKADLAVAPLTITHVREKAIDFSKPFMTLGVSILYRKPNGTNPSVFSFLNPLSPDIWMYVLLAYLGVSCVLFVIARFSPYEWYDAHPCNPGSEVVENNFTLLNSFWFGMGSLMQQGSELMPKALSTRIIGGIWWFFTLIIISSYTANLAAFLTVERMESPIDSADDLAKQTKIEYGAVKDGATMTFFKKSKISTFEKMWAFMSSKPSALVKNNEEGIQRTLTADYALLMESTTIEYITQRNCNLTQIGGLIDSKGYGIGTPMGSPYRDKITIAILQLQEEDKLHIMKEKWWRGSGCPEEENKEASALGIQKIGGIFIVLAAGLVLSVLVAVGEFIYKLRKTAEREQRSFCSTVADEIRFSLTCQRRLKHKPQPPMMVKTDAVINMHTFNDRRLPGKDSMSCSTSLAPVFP
Sequence of Glutamate receptor 4 (Rattus norvegicus) (P19493 whole entry): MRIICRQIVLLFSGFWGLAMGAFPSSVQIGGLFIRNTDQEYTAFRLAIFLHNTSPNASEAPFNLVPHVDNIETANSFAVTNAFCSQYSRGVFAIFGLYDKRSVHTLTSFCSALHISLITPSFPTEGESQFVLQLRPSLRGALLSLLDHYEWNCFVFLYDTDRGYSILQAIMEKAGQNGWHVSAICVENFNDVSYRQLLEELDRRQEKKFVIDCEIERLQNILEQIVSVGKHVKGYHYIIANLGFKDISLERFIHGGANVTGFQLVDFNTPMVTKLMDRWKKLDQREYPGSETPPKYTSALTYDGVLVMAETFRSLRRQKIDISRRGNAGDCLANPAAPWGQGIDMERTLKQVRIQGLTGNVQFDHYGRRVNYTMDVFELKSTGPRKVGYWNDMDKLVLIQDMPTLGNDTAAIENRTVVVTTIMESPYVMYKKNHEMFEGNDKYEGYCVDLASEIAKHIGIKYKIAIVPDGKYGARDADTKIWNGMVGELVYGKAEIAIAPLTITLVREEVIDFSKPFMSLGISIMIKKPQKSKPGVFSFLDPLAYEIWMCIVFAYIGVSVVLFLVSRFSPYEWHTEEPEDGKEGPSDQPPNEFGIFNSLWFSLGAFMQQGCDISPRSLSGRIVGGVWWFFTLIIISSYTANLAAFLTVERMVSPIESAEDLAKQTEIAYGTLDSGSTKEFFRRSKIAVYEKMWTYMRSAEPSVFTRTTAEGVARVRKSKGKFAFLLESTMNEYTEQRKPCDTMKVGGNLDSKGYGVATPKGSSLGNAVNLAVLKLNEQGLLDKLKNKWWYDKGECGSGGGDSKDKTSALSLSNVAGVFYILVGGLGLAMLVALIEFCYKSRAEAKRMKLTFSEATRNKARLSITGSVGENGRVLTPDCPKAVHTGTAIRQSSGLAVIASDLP
T1 sequence (P19493 whole entry): as above
Sequence of Glutamate receptor ionotropic, kainate 2 (Rattus norvegicus, UniProt P42260) (P42260 whole entry): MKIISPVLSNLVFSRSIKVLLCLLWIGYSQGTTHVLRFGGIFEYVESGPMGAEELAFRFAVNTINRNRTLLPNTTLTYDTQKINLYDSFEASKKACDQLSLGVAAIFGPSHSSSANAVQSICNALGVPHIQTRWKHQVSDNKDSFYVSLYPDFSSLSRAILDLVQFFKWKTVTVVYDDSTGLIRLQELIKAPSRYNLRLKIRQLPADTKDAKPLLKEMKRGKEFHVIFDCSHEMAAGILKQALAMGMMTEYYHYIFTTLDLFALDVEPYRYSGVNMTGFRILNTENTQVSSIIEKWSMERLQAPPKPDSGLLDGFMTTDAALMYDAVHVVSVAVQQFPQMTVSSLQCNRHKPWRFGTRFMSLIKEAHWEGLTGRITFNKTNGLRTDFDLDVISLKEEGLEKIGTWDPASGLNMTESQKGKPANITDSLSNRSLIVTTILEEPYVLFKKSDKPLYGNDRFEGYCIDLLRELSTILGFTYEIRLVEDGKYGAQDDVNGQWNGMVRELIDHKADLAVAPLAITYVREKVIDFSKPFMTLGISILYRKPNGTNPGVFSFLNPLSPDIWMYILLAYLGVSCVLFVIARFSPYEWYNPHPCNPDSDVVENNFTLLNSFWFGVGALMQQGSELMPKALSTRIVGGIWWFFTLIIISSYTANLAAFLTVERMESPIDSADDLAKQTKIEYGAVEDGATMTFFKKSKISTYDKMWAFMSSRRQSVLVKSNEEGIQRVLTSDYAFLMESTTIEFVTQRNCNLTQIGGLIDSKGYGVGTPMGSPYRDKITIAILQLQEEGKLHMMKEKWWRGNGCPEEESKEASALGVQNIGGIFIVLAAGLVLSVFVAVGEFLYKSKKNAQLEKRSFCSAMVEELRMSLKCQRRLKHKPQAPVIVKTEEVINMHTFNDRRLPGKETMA
Sequence of Glutamate receptor ionotropic, kainate 1 (Rattus norvegicus) (P22756 whole entry): as the sequence (P22756 whole entry) above
T2 sequence (Q13002 whole entry): as the sequence (P42260 whole entry) above, with S5F, V7I, L11P, S14R, S16T, I17V, V19L, V494A counted along it
Sequence of Glutamate receptor ionotropic, kainate 1 (Homo sapiens, UniProt P39086) (P39086 whole entry): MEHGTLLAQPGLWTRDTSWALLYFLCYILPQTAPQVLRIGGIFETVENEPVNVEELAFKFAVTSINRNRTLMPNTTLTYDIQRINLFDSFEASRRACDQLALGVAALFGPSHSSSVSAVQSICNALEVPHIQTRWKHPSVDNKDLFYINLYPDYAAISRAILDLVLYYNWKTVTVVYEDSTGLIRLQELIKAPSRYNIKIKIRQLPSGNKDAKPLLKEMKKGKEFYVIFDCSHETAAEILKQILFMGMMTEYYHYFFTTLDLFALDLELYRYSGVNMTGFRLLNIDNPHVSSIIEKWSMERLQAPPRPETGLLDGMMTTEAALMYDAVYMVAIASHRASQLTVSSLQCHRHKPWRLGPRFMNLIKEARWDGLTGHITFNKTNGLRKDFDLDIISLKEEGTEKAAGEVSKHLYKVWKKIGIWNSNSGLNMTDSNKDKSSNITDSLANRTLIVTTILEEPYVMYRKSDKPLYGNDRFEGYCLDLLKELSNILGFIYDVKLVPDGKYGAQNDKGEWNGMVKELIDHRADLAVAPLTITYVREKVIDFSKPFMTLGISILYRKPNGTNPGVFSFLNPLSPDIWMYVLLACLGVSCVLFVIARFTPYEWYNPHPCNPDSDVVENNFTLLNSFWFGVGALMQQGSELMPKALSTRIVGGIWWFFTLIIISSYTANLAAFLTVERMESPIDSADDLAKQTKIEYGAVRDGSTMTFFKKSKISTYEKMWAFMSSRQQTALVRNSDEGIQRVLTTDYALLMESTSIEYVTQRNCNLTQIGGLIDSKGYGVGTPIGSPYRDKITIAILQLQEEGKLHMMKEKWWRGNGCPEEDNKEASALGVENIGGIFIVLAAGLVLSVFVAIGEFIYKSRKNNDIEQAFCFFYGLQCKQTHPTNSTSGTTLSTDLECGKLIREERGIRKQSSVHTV

As to `C/C(=C/C=C/[C@@H](C)C(=O)O)[C@H]1CN[C@H](C(=O)O)[C@H]1CC(=O)O` [DOMOIC ACID], the IC50 in assay [1] was determined as 0.004 µM; in [2], 0.015 µM; on Glutamate receptor 4 [3], 9 µM; on Glutamate receptor 4 [4], 0.47 µM. In addition, the EC50 in the assay with Hippocampus was 0.228 µM. The Ki in [5] amounted to 0.00111 µM; in assay [6], 0.00604 µM.

`CC(CCc1cnnn1[C@H]1CN[C@H](C(=O)O)[C@H]1CC(=O)O)C(=O)O` (stereo not given in full): the Ratio Ki in assay [7], in [8] and in [16] was 14 in each case. Besides, the Ki in assay [9] turned out to be 0.42 µM; in assay [10], 5.9 µM; in assay [11], 8.66 µM; in assay [12], 11.7 µM. In assay [13], the IC50 stood at 1.73 µM. In addition, the figures for the Activity in assay [14] and in assay [15] were 102% and 73%, respectively.

For the molecule `C/C(=C/C/C=C(\C)C(=O)O)[C@H]1CN[C@H](C(=O)O)[C@H]1CC(=O)O`, the response in the assay with Hippocampus was half-maximal at 0.887 µM (EC50). Also, the Ki in [17] was found to be 0.13 µM.

For the molecule `O=C(O)C[C@@H]1[C@@H](C(=O)O)NC[C@@H]1n1ccnn1`, the results for the IC50 (at Glutamate receptor 4 [18]; in [13]) were 9.5 µM and 1.3 µM, respectively. In addition, the Ki in assay [10] is 0.28 µM; in assay [11], 2.6 µM; in [12] it was 3.3 µM; on Glutamate NMDA receptor it was above 100 µM.

Turning to `O=C(O)CCc1cn([C@H]2CN[C@H](C(=O)O)[C@H]2CC(=O)O)nn1`, the IC50 (on Glutamate receptor 4 [18]; in assay [13]) was above 100 µM each time. Further, the Ki (in [10]; in assay [11]; in assay [12]; on Glutamate NMDA receptor) was above 100 µM throughout.

With `O=C(O)C[C@@H]1[C@@H](C(=O)O)NC[C@@H]1n1nncc1-c1ccc2cc(O)ccc2c1`, the Activity in the assay on Neuron [19] came to 148 pA; with Neuron [21], 56 pA; in [23] it was 90%; in assay [14], 99%; in assay [15] it was 90%. For the same molecule, the results for the Ki in [9], in assay [10] and in assay [11] were 0.432 µM, 17.9 µM and 70 µM, respectively. Moreover, the result in assay [20] and in assay [22] was inactive. Further, the IC50 in assay [13] was 4.4 µM.

Consider `C/C(=C\C=C/[C@@H](C)C(=O)O)[C@H]1CN[C@H](C(=O)O)[C@H]1CC(=O)O`, for which the IC50 on Glutamate receptor 4 [24] amounted to 32 µM; in [25], 1.4 µM. For the same molecule, the Activity in the assay with Neuron [21] is 2940 pA.

With `O=C(O)C[C@@H]1[C@@H](C(=O)O)NC[C@@H]1n1nncc1-c1ccccc1`, the Ratio Ki in assay [7], in assay [8] and in assay [16] was above 40 each time. In addition, the inhibitory constant (Ki) in [9] worked out at 0.499 µM; in assay [10] it was 21.1 µM; in [11], 36 µM. Also, the values for the Activity in [23], in assay [14] and in [15] were 93%, 101% and 80%, respectively. This molecule also gave an IC50 in assay [13] of 5.1 µM.
